Source: patent publication US20240207219A1, “Artemisia anti-bacterial compositions and methods of use for inhibition of cells of Mycobacterium species” (priority 2022, published 2024)

Tests used:
aerobically growing Mtb = details: aerobic growth
[1] = test system: Mtb in hypoxia-induced growth arrest; assay: Bactericidal activity of HAB9 in hypoxic growth conditions (variation of the Wayne model)
Mtb = details: in vitro; cited from earlier work

Row | Structure (SMILES) | bactericidal activity against aerobically growing Mtb (aerobically growing Mtb) | bactericidal activity in hypoxia-induced growth arrest ([1]; hypoxic, non-replicating Mtb) | anti-mycobacterial activity in limiting oxygen compared to aerobically grown cells ([1]; limiting oxygen versus aerobic) | activity against Mtb under nutrient starvation or progressive oxygen depletion (Mtb)
1 | COc1ccc(-c2cc(=O)c3c(O)cc(OC)cc3o2)cc1 [Compound 1, 5-hydroxy-7-methoxy-2-(4-methoxyphenyl)chromen-4-one] | substantially reduced viable cultures of Mtb | substantially reduced viable cultures of Mtb | enhanced | 
2 | NNC(=O)c1ccncc1 [isoniazid] |  |  |  | little or no activity
